The IC50 is the concentration at which inhibition is half-maximal.

Each structure is given as a SMILES string.

Holding throughout (assay type): cell-based
Assay [1] deals with T1, PAR2 (HT-29 cells) (Homo sapiens, UniProt P55085).
T1 construct: host or cells: HT-29
T1 sequence (P55085 26-397): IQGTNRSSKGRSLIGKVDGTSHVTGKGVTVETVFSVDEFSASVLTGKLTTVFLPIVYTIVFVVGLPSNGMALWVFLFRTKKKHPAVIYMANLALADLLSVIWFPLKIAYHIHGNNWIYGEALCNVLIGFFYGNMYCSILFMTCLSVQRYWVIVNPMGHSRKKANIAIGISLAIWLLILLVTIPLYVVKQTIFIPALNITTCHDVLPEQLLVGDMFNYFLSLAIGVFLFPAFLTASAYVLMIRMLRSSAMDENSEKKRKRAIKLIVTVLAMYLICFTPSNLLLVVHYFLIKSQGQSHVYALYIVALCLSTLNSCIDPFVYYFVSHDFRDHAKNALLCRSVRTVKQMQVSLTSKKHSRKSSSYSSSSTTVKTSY
The assay can be described thus: Ca FLIPR TETRA assay, ANTAGONIST mode, activator 8 μM SLIGKV. The note with it: HT-29 cells, activator 8 μM SLIGKV; maximal antagonist concentration per Method (A: 0.1, 1 or 2 μM; B: 50 μM). The essentials: (§1)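 HT-29 cells plated overnight at 37 °C in 1% FBS/McCoy's, loaded with calcium 5 dye (45 min 37 °C, 15 min r.t.), then preincubated with compounds 30 min at r.t. before a fixed activator challenge. Intracellular Ca2+ read by FLIPR Tetra; a first read checks compound-alone activation.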

The test system of assay [2] is UTP-stimulated Ca2+ response in HT-29 cells. The assay can be described thus: Ca FLIPR TETRA assay, ANTAGONIST mode, activator 0.6 μM UTP. The note with it: Homo sapiens; HT-29 cells, activator 0.6 μM UTP. The essentials: as §1
For assay [3], the target named is T1, PAR2 (HT-29 cells). The assay is described as follows: Ca FLIPR TETRA assay, ANTAGONIST mode, activator 3.1 U/mL trypsin. The note with it: HT-29 cells, activator 3.1 U/mL trypsin; maximal antagonist concentration per Method (A: 0.1, 1 or 2 μM; B: 50 μM). The gist of the method:
as §1

The subject of assay [4] is Thrombin-stimulated Ca2+ response in HT-29 cells. The assay is described as follows: Ca FLIPR TETRA assay, ANTAGONIST mode, activator 1 U/mL Thrombin. The note with it: Homo sapiens; HT-29 cells, activator 1 U/mL Thrombin. The gist of the method: as §1

Regarding `CC(C)(C)c1cc(-c2ccc(F)cc2)nc2cc(C(=O)N3CCN(C(=O)c4ncccn4)CC3(C)C)oc12` [Example I-184], the IC50 in assay [1] is 5.7 nM; in assay [2], over 1000 nM; in assay [3], 12 nM; in assay [4] it was over 1000 nM.

On to `CC(C)(C)c1cc(-c2ccc(F)cc2)nc2cc(C(=O)N3CCN(C(=O)c4ccccn4)CC3(C)C)oc12` [Example I-185], for which the IC50 in assay [1] is 1.2 nM; in assay [2] it was over 1000 nM; in assay [3], 5.1 nM; in assay [4], over 1000 nM.

`Cc1cc(C(=O)N2CCN(C(=O)c3cc4nc(-c5ccc(F)cc5)cc(C(C)(C)C)c4o3)C(C)(C)C2)no1` [Example I-186]: the IC50 in assay [1] was 0.7 nM; in assay [2], over 1000 nM; in assay [3], 1 nM; in assay [4], over 1000 nM.

For `CC(C)(C)c1cc(-c2ccc(F)cc2)nc2cc(C(=O)N3CCN(C(=O)c4n[nH]c(=O)[nH]4)CC3(C)C)oc12` [Example I-187], the half-maximal inhibitory concentration (IC50) in assay [1] was 10 nM; in assay [2], over 1000 nM; in assay [3], 20 nM; in assay [4], over 1000 nM.

On to `COC(=O)C1CC(C(=O)N2CCN(C(=O)c3cc4nc(-c5ccc(F)cc5)cc(C(C)(C)C)c4o3)C(C)(C)C2)C1` (stereo not drawn) [Example I-188], for which the half-maximal inhibitory concentration (IC50) in assay [1] was 3 nM; in assay [2], over 1000 nM; in assay [3], 6 nM; in assay [4] it was over 1000 nM.

As to `CC(C)(C)c1cc(-c2ccc(F)cc2)nc2cc(C(=O)N3CCN(C(=O)C4CC(C(=O)O)C4)CC3(C)C)oc12` (stereo not drawn) [Example I-189], the IC50 was 17 nM in assay [1], over 1000 nM in assay [2], 28 nM in assay [3] and over 1000 nM in assay [4].

For `COC(=O)C12CC(C(=O)N3CCN(C(=O)c4cc5nc(-c6ccc(F)cc6)cc(C(C)(C)C)c5o4)C(C)(C)C3)(C1)C2` [Example I-190], the IC50 in assay [1] was 11 nM; in assay [2], 760 nM; in assay [3] it was 13 nM; in assay [4], 520 nM.

Regarding `CC(C)(C)c1cc(-c2ccc(F)cc2)nc2cc(C(=O)N3CCN(C(=O)C45CC(C(=O)O)(C4)C5)CC3(C)C)oc12` [Example I-191], the half-inhibitory concentration (IC50) in assay [1] was 403 nM; in assay [2] it was over 1000 nM; in assay [3] it was 713 nM; in assay [4], over 1000 nM.

For `CC(C)(C)c1cc(-c2ccc(F)cc2)nc2cc(C(=O)N3CCN(C(=O)c4ccc(C(=O)O)cc4)CC3(C)C)oc12` [Example I-192], the IC50 in assay [1] was 14 nM; in assay [2], over 1000 nM; in assay [3] it was 13 nM; in assay [4] it was over 1000 nM.

As for `CC(C)(C)c1cc(-c2ccc(F)cc2)nc2cc(C(=O)N3CCN(C(=O)C4(C(=O)O)CC4)CC3(C)C)oc12` [Example I-193], the IC50 was 260 nM in assay [1], over 1000 nM in assay [2], 190 nM in assay [3] and over 1000 nM in assay [4].

`CC(C)(C)c1cc(-c2ccc(F)cc2)nc2cc(C(=O)N3CCN(C(=O)CCC(=O)O)CC3(C)C)oc12` [Example I-194]: the IC50 in assay [1] was 9 nM; in assay [2], over 1000 nM; in assay [3], 22 nM; in assay [4], over 1000 nM.

For the molecule `CC(C)(C(=O)O)C(=O)N1CCN(C(=O)c2cc3nc(-c4ccc(F)cc4)cc(C(C)(C)C)c3o2)C(C)(C)C1` [Example I-195], the half-maximal inhibitory concentration (IC50) in assay [1] is 96 nM; in assay [2], over 1000 nM; in assay [3] it was 233 nM; in assay [4] it was over 1000 nM.

Turning to `CC(C)(CC(=O)N1CCN(C(=O)c2cc3nc(-c4ccc(F)cc4)cc(C(C)(C)C)c3o2)C(C)(C)C1)C(=O)O` [Example I-196], the IC50 is 0.7 nM in assay [1], over 1000 nM in assay [2], 1 nM in assay [3] and over 1000 nM in assay [4].

Turning to `CC(C)(C)c1cc(-c2ccc(F)cc2)nc2cc(C(=O)N3CCN(C(=O)[C@H]4C[C@@H]4C(=O)O)CC3(C)C)oc12` [Example I-197], the IC50 was 48 nM in assay [1], over 1000 nM in assay [2], 76 nM in assay [3] and over 1000 nM in assay [4].

For the molecule `CC1(C(=O)O)CCC(C(=O)N2CCN(C(=O)c3cc4nc(-c5ccc(F)cc5)cc(C(C)(C)C)c4o3)C(C)(C)C2)CC1` (stereo not drawn) [Example I-198], the IC50 in assay [1] was 0.1 nM; in assay [2] it was over 1000 nM; in assay [3], 0.8 nM; in assay [4], over 1000 nM.

Values taken from US20180057505A1, “BICYCLIC HETEROARYL COMPOUNDS USEFUL AS INHIBITORS OF THE PAR-2 SIGNALING PATHWAY” (VERTEX PHARMACEUTICALS INCORPORATED, priority 2015, published 2018).
